Like-named read-outs stand apart in the source and are kept apart here.
Columns and labels:
OX1 [1] = target: T1, OX1 (Homo sapiens, UniProt O43613); test: Antagonism PLAP reporter assay, HEK-293 cells expressing human OX1; type: cell-based; design: expressed in transfected cells; host or cells: HEK-293 cell line, expression vector pBabeCLIH; settings: HEK-293, 1 nM human OX-A; IC50 converted to Ki by Cheng-Prusoff equation
T1 sequence (O43613 1-425): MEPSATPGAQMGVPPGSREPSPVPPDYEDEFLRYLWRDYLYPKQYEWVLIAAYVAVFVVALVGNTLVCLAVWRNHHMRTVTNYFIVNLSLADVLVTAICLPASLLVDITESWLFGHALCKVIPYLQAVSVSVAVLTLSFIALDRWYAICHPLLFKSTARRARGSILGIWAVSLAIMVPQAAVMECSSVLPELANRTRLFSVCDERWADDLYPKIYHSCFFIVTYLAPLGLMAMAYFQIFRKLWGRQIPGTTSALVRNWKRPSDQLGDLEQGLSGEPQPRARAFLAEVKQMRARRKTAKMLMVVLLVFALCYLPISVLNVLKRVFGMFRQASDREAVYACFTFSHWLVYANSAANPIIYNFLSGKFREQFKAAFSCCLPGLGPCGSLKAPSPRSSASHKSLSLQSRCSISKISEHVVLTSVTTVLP
Experimental: (§1) The antagonistic function of the compound of the present invention to prevent the activation of OX2 and OX1 by orexin-A (OX-A), which is a natural peptide agonist, was measured using a cell-based reporter assay. A HEK-293 cell line expressing genetically recombinant human OX2 (accession No. NM_001526.3) or a HEK-293 cell line expressing genetically recombinant human OX1 (accession No. NM_001525.2), which had pBabeCLIH as expression vector, was used. The cells were plated at a density of 10,000 cells/well onto a non-coated 96-well plate in Dulbecco's modified Eagle medium (Sigma Cat No. D6046: 10% v/v heat-inactivated fetal bovine serum was contained). The cells were cultured at 37° C. overnight, so that they could adhere to the plate. On the following day, cells were incubated with a compound of the present invention dissolved in Dulbecco's modified Eagle medium (Sigma Cat No. A8806: 0.1% w/v bovine serum albumin was contained), and added to the cell plate to reach a final concentration of 0.1% dimethyl sulfoxide.
(§2) The thus obtained mixture was incubated at room temperature for 1 hour. Thereafter, human OX-A and forskolin were dissolved in the same medium as described above, which contained fetal bovine serum albumin, and the medium was then added to the cells, resulting in a final concentration of 300 nM forskolin. Subsequently, the cells were cultured at 37° C. for approximately 18 to 24 hours. During the culture, as a result of activation of the orexin receptor and subsequent dose-dependent increase in intracellular calcium concentration, a reporter enzyme, placental alkaline phosphatase (PLAP), was expressed under the control of a CRE x4+VIP promoter in a pBabeCLcre4vPdNN vector and secreted into the culture medium supernatant. On the following day, reporter enzyme activity was detected by mixing 5 ul of the culture medium supernatant with 20 ul of detection buffer (containing 1.34 g/L sodium bicarbonate, 1.27 g/L sodium carbonate and 0.2 g/L magnesium sulfate heptahydrate in water) and 25 ul of Lumi-Phos530 reagent (Wako Pure Chemical Industries Ltd.), followed by incubating the obtained mixture light-protected at room temperature for 2 hours, before performing luminescence measurement (ARVO Reader, PerkinElmer). The Kd value of human OX-A with respect to each receptor was measured by titration from 0 to 300 nM. Then, the IC50 value of the compound of the present invention with respect to the activity of 1 nM human OX-A was converted into a Ki value (nM) using the Cheng-Prusoff equation.

OX2 [2] = target: T2, OX2 (Homo sapiens, UniProt O43614); test: Orexin-receptor binding ability, [125I]-OX-A, CHO cell membranes expressing OX2; design: expressed in transfected cells; host or cells: CHO cells (membrane preparation)
T2 sequence (O43614 1-444): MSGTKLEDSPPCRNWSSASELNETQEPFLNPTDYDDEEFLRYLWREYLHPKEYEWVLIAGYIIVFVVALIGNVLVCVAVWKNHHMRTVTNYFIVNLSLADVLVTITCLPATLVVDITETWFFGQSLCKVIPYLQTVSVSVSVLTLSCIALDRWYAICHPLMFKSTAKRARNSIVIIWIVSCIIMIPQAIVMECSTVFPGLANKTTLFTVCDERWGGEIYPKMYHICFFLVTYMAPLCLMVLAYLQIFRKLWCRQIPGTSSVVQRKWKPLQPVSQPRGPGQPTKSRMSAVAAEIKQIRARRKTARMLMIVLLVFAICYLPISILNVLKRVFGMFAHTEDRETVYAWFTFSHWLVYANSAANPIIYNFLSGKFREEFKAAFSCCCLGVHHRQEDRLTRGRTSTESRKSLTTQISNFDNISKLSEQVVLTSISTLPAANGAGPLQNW
Experimental: (§3) The assay was carried out using a 96-well Wheat Germ Agglutinin Flash Plate (PerkinElmer). The volume in a single assay well was 100 ul, and the composition of the reaction solution was as follows:
(§4) 25 mM HEPES (pH 7.5), 1 mM CaCl2, 4.5 mM MgCl2, 0.5% BSA (bovine serum albumin), 0.1% sodium azide, 0.05% Tween-20, and 0.2% DMSO.
Cell membranes were prepared from recombinant CHO cells that expressed OX2 or OX1. The cell membranes were used in an amount of 5 μg protein/assay. Test compound in various concentrations, and 0.2 nM [^125I]-OX-A as tracer were added to the cell membranes, and then allowed to react at room temperature for 30 minutes. After completion of the reaction, the reaction solution as a whole was discarded, and the wells were then washed once with 200 ul of wash buffer (25 mM HEPES (pH 7.5), 1 mM CaCl2, 5 mM MgCl2, 0.5% BSA, 0.1% sodium azide, 0.05% Tween-20, and 525 mM sodium chloride). Finally, the radioactivity of each well was measured using a scintillation counter (TopCount, PerkinElmer). The obtained results are shown in terms of IC50 values (nM) in the following table.

OX2 [3] = target: T2, OX2; test: Antagonism PLAP reporter assay, HEK-293 cells expressing human OX2; type: cell-based; design: expressed in transfected cells; host or cells: HEK-293 cell line, expression vector pBabeCLIH; settings: HEK-293, 1 nM human OX-A; IC50 converted to Ki by Cheng-Prusoff equation
Experimental: as §1, §2

OX1 [4] = target: T1, OX1; test: Orexin-receptor binding ability, [125I]-OX-A, CHO cell membranes expressing OX1; design: expressed in transfected cells; host or cells: CHO cells (membrane preparation)
Experimental: as §3, §4
Cell membranes were prepared from recombinant CHO cells that expressed OX2 or OX1. The cell membranes were used in an amount of 5 μg protein/assay. […] Finally, the radioactivity of each well was measured using a scintillation counter (TopCount, PerkinElmer). The obtained results are shown in terms of IC50 values (nM) in the following table.

[5] = membranes of recombinant CHO cells, 0.2 nM [125I]-OX-A tracer, read-out: OX2 (IC50)
[6] = membranes of recombinant CHO cells, 0.2 nM [125I]-OX-A tracer, read-out: OX1 (IC50)

SMILES	Ki (OX1 [1])	IC50 (OX2 [2])	Ki (OX2 [3])	IC50 (OX1 [4])	IC50 (OX2 [2]; [5])	IC50 (OX1 [4]; [6])
COc1ccc(OCC2(c3ccccc3)CC2C(=O)Nc2ccc(Cl)cn2)cc1OC (stereo not drawn) [Example 6, N-(5-chloropyridin-2-yl)-2-[(3,4-dimethoxyphenyl)oxymethyl]-2-phenylcyclopropanecarboxamide]	9.8 nM	3 nM	0.8 nM	19 nM		
COc1ccc(OCC2(c3ccccc3)CC2C(=O)Nc2nc(C)ns2)cc1OC (stereo not drawn) [Example 7, N-(3-methyl-1,2,4-thiadiazol-5-yl)-2-[(3,4-dimethoxyphenyl)oxymethyl]-2-phenylcyclopropanecarboxamide]	> 816 nM		55.9 nM		43 nM	1900 nM
COc1ccc(OCC2(c3ccccc3)CC2C(=O)Nc2cc(C)no2)cc1OC (stereo not drawn) [Example 8, N-(3-methylisoxazol-5-yl)-2-[(3,4-dimethoxyphenyl)oxymethyl]-2-phenylcyclopropanecarboxamide]	> 816 nM		92.1 nM		17 nM	1260 nM
COc1ccc(OCC2(c3ccccc3)CC2C(=O)Nc2ccc(F)cn2)cc1OC (stereo not drawn) [Example 10, N-(5-fluoropyridin-2-yl)-2-[(3,4-dimethoxyphenyl)oxymethyl]-2-phenylcyclopropanecarboxamide]	68.6 nM		4.2 nM		3 nM	56 nM
COc1ccc(OCC2(c3ccccc3)CC2C(=O)Nc2cncc(Cl)c2)cc1OC (stereo not drawn) [Example 11, N-(5-chloropyridin-3-yl)-2-[(3,4-dimethoxyphenyl)oxymethyl]-2-phenylcyclopropanecarboxamide]	572 nM		48.2 nM		29 nM	333 nM
COc1ccc(OCC2(c3ccccc3)CC2C(=O)Nc2ccncc2Cl)cc1OC (stereo not drawn) [Example 14, N-(3-chloropyridin-4-yl)-2-[(3,4-dimethoxyphenyl)oxymethyl]-2-phenylcyclopropanecarboxamide]	> 816 nM		99 nM		46 nM	438 nM
COc1ccc(OCC2(c3ccccc3)CC2C(=O)Nc2cc(C#N)ccn2)cc1OC (stereo not drawn) [Example 18, N-(4-cyanopyridin-2-yl)-2-[(3,4-dimethoxyphenyl)oxymethyl]-2-phenylcyclopropanecarboxamide]	186 nM		23.7 nM		35 nM	105 nM
COc1ccc(OCC2(c3ccccc3)CC2C(=O)Nc2cc(C)on2)cc1OC (stereo not drawn) [Example 21, N-(5-methylisoxazol-3-yl)-2-[(3,4-dimethoxyphenyl)oxymethyl]-2-phenylcyclopropanecarboxamide]	> 816 nM		77.1 nM		28 nM	505 nM
COc1ccc(OCC2(c3ccccc3)CC2C(=O)Nc2ncc(C)s2)cc1OC (stereo not drawn) [Example 22, N-(5-methyl-1,3-thiazol-2-yl)-2-[(3,4-dimethoxyphenyl)oxymethyl]-2-phenylcyclopropanecarboxamide]	> 816 nM		> 614 nM		35 nM	296 nM
COc1ccc(OCC2(c3ccccc3)CC2C(=O)Nc2nc(C)cs2)cc1OC (stereo not drawn) [Example 23, N-(4-methyl-1,3-thiazol-2-yl)-2-[(3,4-dimethoxyphenyl)oxymethyl]-2-phenylcyclopropanecarboxamide]	624 nM		15.8 nM		14 nM	847 nM
COc1ccc(OCC2(c3ccccc3)CC2C(=O)Nc2cncc(F)c2)cc1OC (stereo not drawn) [Example 24, N-(5-fluoropyridin-3-yl)-2-[(3,4-dimethoxyphenyl)oxymethyl]-2-phenylcyclopropanecarboxamide]	> 816 nM		83.5 nM		48 nM	805 nM
COc1ccc(OCC2(c3ccccc3)CC2C(=O)Nc2ccncc2C(F)(F)F)cc1OC (stereo not drawn) [Example 25, N-(3-trifluoromethylpyridin-4-yl)-2-[(3,4-dimethoxyphenyl)oxymethyl]-2-phenylcyclopropanecarboxamide]	> 816 nM	27 nM	391 nM			369 nM

From patent publication US20120165339A1, “CYCLOPROPANE DERIVATIVES” (EISAI R&D MANAGEMENT CO., LTD., priority 2010, published 2012)
